Converted amounts (≈) assume the structure as drawn. The source made the active and inactive calls. No cut-off for these calls is given here.
Columns and labels:
Monascus purpureus [1] = assay: Antifungal activity against Monascus purpureus after 18 hr by serial dilution method; assay type: functional
Bacillus subtilis [2] = assay: Antibacterial activity against Bacillus subtilis after 24 hr by disk diffusion method; assay type: functional
Escherichia coli [3] = assay: Antibacterial activity against Escherichia coli after 24 hr by disc diffusion method; assay type: functional
Salmonella paratyphi [4] = assay: Antibacterial activity against Salmonella enterica subsp. enterica serovar Paratyphi A after 18 hr by serial dilution method; assay type: functional
Candida albicans [5] = assay: Antifungal activity against Candida albicans after 24 hr by disk diffusion method; assay type: functional
Candida albicans [6] = assay: Antifungal activity against Candida albicans after 18 hr by serial dilution method; assay type: functional
Trichophyton rubrum [7] = assay: Antifungal activity against Trichophyton rubrum after 18 hr by serial dilution method; assay type: functional
Escherichia coli [8] = assay: Antibacterial activity against Escherichia coli after 18 hr by serial dilution method; assay type: functional
Salmonella paratyphi [9] = assay: Antibacterial activity against Salmonella enterica subsp. enterica serovar Paratyphi A after 24 hr by disk diffusion method; assay type: functional
Aspergillus niger [10] = assay: Antifungal activity against Aspergillus niger after 24 hr by disc diffusion method; assay type: functional
Micrococcus luteus [11] = assay: Antibacterial activity against Micrococcus luteus after 18 hr by serial dilution method; assay type: functional
[12] = system: Staphylococcus epidermidis; assay: Antibacterial activity against Staphylococcus albus after 24 hr by disk diffusion method; assay type: functional
Pseudomonas aeruginosa [13] = assay: Antibacterial activity against Pseudomonas aeruginosa after 18 hr by serial dilution method; assay type: functional
Pseudomonas aeruginosa [14] = assay: Antibacterial activity against Pseudomonas aeruginosa after 24 hr by disc diffusion method; assay type: functional
Aspergillus niger [15] = assay: Antifungal activity against Aspergillus niger after 18 hr by serial dilution method; assay type: functional
Staphylococcus aureus [16] = assay: Antibacterial activity against Staphylococcus aureus after 18 hr by serial dilution method; assay type: functional
[17] = system: Staphylococcus epidermidis; assay: Antibacterial activity against Staphylococcus albus after 18 hr by serial dilution method; assay type: functional
Trichophyton rubrum [18] = assay: Antifungal activity against Trichophyton rubrum after 24 hr by disk diffusion method; assay type: functional
Staphylococcus aureus [19] = assay: Antibacterial activity against Staphylococcus aureus after 24 hr by disk diffusion method; assay type: functional
[20] = system: Radical scavenging activity; assay: Antioxidant activity assessed as DPPH radical scavenging activity after 30 min by spectrophotometric analysis; assay type: functional
Vibrio cholerae [21] = assay: Antibacterial activity against Vibrio cholerae after 18 hr by serial dilution method; assay type: functional
Monascus purpureus [22] = assay: Antifungal activity against Monascus purpureus after 24 hr by disk diffusion method; assay type: functional
Vibrio cholerae [23] = assay: Antibacterial activity against Vibrio cholerae after 24 hr by disk diffusion method; assay type: functional
Micrococcus luteus [24] = assay: Antibacterial activity against Micrococcus luteus after 24 hr by disk diffusion method; assay type: functional
[25] = Antioxidant activity assessed as reduction of ferric ion after 30 min by spectrophotometric analysis; assay type: functional
Bacillus subtilis [26] = assay: Antibacterial activity against Bacillus subtilis after 18 hr by serial dilution method; assay type: functional
[27] = system: Mycobacterium tuberculosis; assay: Growth inhibition of Mycobacterium tuberculosis H37Rv at 100 ug/ml after 7 days by resazurin microplate assay; assay type: functional, organism-based
[28] = system: Mycobacterium tuberculosis; assay: Growth inhibition of Mycobacterium tuberculosis H37Rv at 1 ug/ml after 7 days by resazurin microplate assay; assay type: functional, organism-based
[29] = system: Mycobacterium tuberculosis; assay: Growth inhibition of Mycobacterium tuberculosis H37Rv at 10 ug/ml after 7 days by resazurin microplate assay; assay type: functional, organism-based

| Molecule | MIC (Monascus purpureus [1]) [µg/mL] | diameter of the inhibition zone (DIZ) (Bacillus subtilis [2]) [mm] | MIC (Salmonella paratyphi [4]) [µg/mL] | MIC (Candida albicans [6]) [µg/mL] | MIC (Trichophyton rubrum [7]) [µg/mL] | MIC (Escherichia coli [8]) [µg/mL] | diameter of the inhibition zone (DIZ) (Salmonella paratyphi [9]) [mm] | diameter of the inhibition zone (DIZ) (Aspergillus niger [10]) [mm] | MIC (Micrococcus luteus [11]) [µg/mL] | diameter of the inhibition zone (DIZ) [12] [mm] | MIC (Pseudomonas aeruginosa [13]) [µg/mL] | diameter of the inhibition zone (DIZ) (Pseudomonas aeruginosa [14]) [mm] | MIC (Aspergillus niger [15]) [µg/mL] | MIC (Staphylococcus aureus [16]) [µg/mL] | MIC [17] [µg/mL] | diameter of the inhibition zone (DIZ) (Trichophyton rubrum [18]) [mm] | diameter of the inhibition zone (DIZ) (Staphylococcus aureus [19]) [mm] | MIC (Vibrio cholerae [21]) [µg/mL] | diameter of the inhibition zone (DIZ) (Monascus purpureus [22]) [mm] | diameter of the inhibition zone (DIZ) (Vibrio cholerae [23]) [mm] | other results |
| --- | --- | --- | --- | --- | --- | --- | --- | --- | --- | --- | --- | --- | --- | --- | --- | --- | --- | --- | --- | --- | --- |
| O=C(NCC(=O)N1c2ccccc2Sc2ccccc21)NN1C(=O)C(Cl)C1c1cccc(F)c1 (configuration not stated) | 125 (≈ 252 µM) | 11 | 125 (≈ 252 µM) | 125 (≈ 252 µM) | 125 (≈ 252 µM) | 250 (≈ 503 µM) | 10 | 7 | 250 (≈ 503 µM) | 11 | 125 (≈ 252 µM) | 11 | 250 (≈ 503 µM) | 250 (≈ 503 µM) | 125 (≈ 252 µM) | 7 | 7 | 125 (≈ 252 µM) | 10 | 9 | diameter of the inhibition zone (DIZ) (Escherichia coli [3]): 6 mm; diameter of the inhibition zone (DIZ) (Candida albicans [5]): 11 mm; EC50 [20]: 47 µg/mL (≈ 94.6 µM); diameter of the inhibition zone (DIZ) (Micrococcus luteus [24]): 7 mm; Activity [25]: Active; MIC (Bacillus subtilis [26]): 62.5 µg/mL (≈ 126 µM) |
| CN(C)c1ccc(C2C(Cl)C(=O)N2NC(=O)NCC(=O)N2c3ccccc3Sc3ccccc32)cc1 (configuration not stated) | 250 (≈ 479 µM) | 8 | 250 (≈ 479 µM) | 250 (≈ 479 µM) | 250 (≈ 479 µM) | 250 (≈ 479 µM) | 6 | 8 | 250 (≈ 479 µM) | 8 | 62.5 (≈ 120 µM) | 12 | 125 (≈ 239 µM) | 125 (≈ 239 µM) | 125 (≈ 239 µM) | 7 | 8 | 125 (≈ 239 µM) | 7 | 8 | diameter of the inhibition zone (DIZ) (Escherichia coli [3]): 7 mm; diameter of the inhibition zone (DIZ) (Candida albicans [5]): 7 mm; growth inhibition (GI) [27]: Active; EC50 [20]: 55 µg/mL (≈ 105 µM); growth inhibition (GI) [28]: inactive; diameter of the inhibition zone (DIZ) (Micrococcus luteus [24]): 5 mm; Activity [25]: Active; MIC (Bacillus subtilis [26]): 125 µg/mL (≈ 239 µM); growth inhibition (GI) [29]: inactive |
| COc1ccc(C2C(Cl)C(=O)N2NC(=O)NCC(=O)N2c3ccccc3Sc3ccccc32)cc1 (configuration not stated) | 250 (≈ 491 µM) | 7 | 125 (≈ 246 µM) | 250 (≈ 491 µM) | 250 (≈ 491 µM) | 125 (≈ 246 µM) | 8 | 10 | 250 (≈ 491 µM) | 10 | 125 (≈ 246 µM) | 7 | 125 (≈ 246 µM) | 250 (≈ 491 µM) | 62.5 (≈ 123 µM) | 6 | 5 | 125 (≈ 246 µM) | 6 | 9 | diameter of the inhibition zone (DIZ) (Escherichia coli [3]): 8 mm; diameter of the inhibition zone (DIZ) (Candida albicans [5]): 7 mm; diameter of the inhibition zone (DIZ) (Micrococcus luteus [24]): 7 mm; MIC (Bacillus subtilis [26]): 250 µg/mL (≈ 491 µM) |
| FERROUS SULFATE |  |  |  |  |  |  |  |  |  |  |  |  |  |  |  |  |  |  |  |  | Activity [25]: Active |
| COc1cc(C2C(Cl)C(=O)N2NC(=O)NCC(=O)N2c3ccccc3Sc3ccccc32)ccc1O (configuration not stated) | 250 (≈ 476 µM) | 6 | 125 (≈ 238 µM) | 125 (≈ 238 µM) | 250 (≈ 476 µM) | 125 (≈ 238 µM) | 10 | 5 | 250 (≈ 476 µM) | 5 | 125 (≈ 238 µM) | 10 | 250 (≈ 476 µM) | 250 (≈ 476 µM) | 250 (≈ 476 µM) | 4 | 7 | 125 (≈ 238 µM) | 7 | 10 | diameter of the inhibition zone (DIZ) (Escherichia coli [3]): 10 mm; diameter of the inhibition zone (DIZ) (Candida albicans [5]): 10 mm; diameter of the inhibition zone (DIZ) (Micrococcus luteus [24]): 8 mm; MIC (Bacillus subtilis [26]): 250 µg/mL (≈ 476 µM) |
| O=C(NCC(=O)N1c2ccccc2Sc2ccccc21)NN1C(=O)C(Cl)C1c1cccc(Cl)c1 (configuration not stated) | 250 (≈ 487 µM) | 11 | 125 (≈ 243 µM) | 62.5 (≈ 122 µM) | 250 (≈ 487 µM) | 500 (≈ 974 µM) | 10 | 7 | 250 (≈ 487 µM) | 11 | 125 (≈ 243 µM) | 10 | 250 (≈ 487 µM) | 250 (≈ 487 µM) | 125 (≈ 243 µM) | 6 | 7 | 250 (≈ 487 µM) | 7 | 8 | diameter of the inhibition zone (DIZ) (Escherichia coli [3]): 5 mm; diameter of the inhibition zone (DIZ) (Candida albicans [5]): 12 mm; growth inhibition (GI) [27]: Active; growth inhibition (GI) [28]: inactive; diameter of the inhibition zone (DIZ) (Micrococcus luteus [24]): 5 mm; MIC (Bacillus subtilis [26]): 125 µg/mL (≈ 243 µM); growth inhibition (GI) [29]: Active |
| O=C1O[C@H]([C@@H](O)CO)C(O)=C1O [ASCORBIC ACID] |  |  |  |  |  |  |  |  |  |  |  |  |  |  |  |  |  |  |  |  | EC50 [20]: 40 µg/mL (≈ 227 µM) |
| O=C(O)c1cn(C2CC2)c2cc(N3CCNCC3)c(F)cc2c1=O [CIPROFLOXACIN] |  | 25 | 125 (≈ 377 µM) |  |  | 62.5 (≈ 189 µM) | 18 |  | 125 (≈ 377 µM) | 23 | 62.5 (≈ 189 µM) | 22 |  | 62.5 (≈ 189 µM) | 62.5 (≈ 189 µM) |  | 20 | 125 (≈ 377 µM) |  | 15 | diameter of the inhibition zone (DIZ) (Micrococcus luteus [24]): 16 mm; MIC (Bacillus subtilis [26]): 62.5 µg/mL (≈ 189 µM) |
| Clc1ccccc1C(c1ccccc1)(c1ccccc1)n1ccnc1 [CLOTRIMAZOLE] | 62.5 (≈ 181 µM) |  |  | 62.5 (≈ 181 µM) | 62.5 (≈ 181 µM) |  |  | 4 |  |  |  |  | 125 (≈ 362 µM) |  |  | 22 |  |  | 20 |  |  |
| CO[C@H]1/C=C/O[C@@]2(C)Oc3c(C)c(O)c4c(O)c(c(/C=N/N5CCN(C)CC5)c(O)c4c3C2=O)NC(=O)/C(C)=C\C=C\[C@H](C)[C@H](O)[C@@H](C)[C@@H](O)[C@@H](C)[C@H](OC(C)=O)[C@@H]1C |  |  |  |  |  |  |  |  |  |  |  |  |  |  |  |  |  |  |  |  | growth inhibition (GI) [28]: Active; growth inhibition (GI) [29]: Active |
| O=C(NCC(=O)N1c2ccccc2Sc2ccccc21)NN1C(=O)C(Cl)C1c1ccccc1Cl (configuration not stated) | 125 (≈ 243 µM) | 7 | 125 (≈ 243 µM) | 62.5 (≈ 122 µM) | 125 (≈ 243 µM) | 250 (≈ 487 µM) | 12 | 8 | 250 (≈ 487 µM) | 5 | 250 (≈ 487 µM) | 7 | 125 (≈ 243 µM) | 500 (≈ 974 µM) | 250 (≈ 487 µM) | 10 | 4 | 250 (≈ 487 µM) | 10 | 6 | diameter of the inhibition zone (DIZ) (Escherichia coli [3]): 8 mm; diameter of the inhibition zone (DIZ) (Candida albicans [5]): 12 mm; EC50 [20]: 57 µg/mL (≈ 111 µM); diameter of the inhibition zone (DIZ) (Micrococcus luteus [24]): 7 mm; Activity [25]: Active; MIC (Bacillus subtilis [26]): 250 µg/mL (≈ 487 µM) |
